Results on 37 compounds are retold here after patent publication US7273878B2, “Difluoroalkene derivative, pest control agent containing the same, and intermediate therefor” (Kumiai Chemical Industry Co., Ltd., priority 2001, dated 2007).

The subject of one series is Nilaparvata lugenis. In words: Insecticidal test for Nilaparvata lugenis. In kind it is in vivo. The note with it: 144 h, 500 ppm active ingredient (wettable powder), 4-instar larvae on germinated rice paddy, 25° C., after 6 days, read-out: mortality rate. On the procedure: The wettable powder prepared according to the above Preparation Example 2 was diluted with water to a concentration of 500 ppm as a concentration of active ingredient. After soaking the germinated rice paddy in the test solution, the paddy was transferred into a 60 ml volume of plastic cup. Ten (10) heads of 4-instar larvae of Nilaparvata lugenis were inoculated on the paddy and capped, then left at the constant temperature of 25° C. After 6 days from the inoculation, the number of surviving insects was counted, and mortality rate of the insect was calculated according to the following formula 1. mortality rate (%)=[(10−number of surviving insect in the test field)/10]×100 (1)

Another series has as its system ddy mouse (Slc:ddy). Kind of series: Oral acute toxicity test. Also noted: key: 0/3 means none of 3 recipient animals died; 1/3 means one out of 3 recipient animals died; 2/3 means 2 out of 3 recipient animals died; 3/3 means all 3 recipient animals died. In kind it is in vivo. The following applies: oral 30 mg/kg, mortality investigated for 7 days; for Test result Female (mortality, animals died out of 3): female ddy mouse; for Test result Male (mortality, animals died out of 3): male ddy mouse. On the procedure:
Oral acute toxicity test was conducted according to the method described in the guideline in “Guideline for the Preparation of Test Report on the Toxicity Studies”, published by the Ministry of Agriculture, Forestry and Fisheries of Japan. Experimental animals, 3 each of male and female of 7 weeks aged ddy mouse (Slc:ddy), were obtained from SLC Japan Inc. The compounds of the present invention and the reference substances were suspended in 0.5% sodium carboxymethyl cellulose or corn oil to give a 30 (mg/kg) equivalent amount for a dosage of 10 ml per 1 kg of body weight. The suspensions were inoculated using a sonde directly into the stomach of test animals which were fasted for 3 hours before inoculation. The test animals were fasted for additional 3 hours after inoculation, and the mortality of the inoculated animal was investigated for 7 days. In this table, 0/3 means none of 3 recipient animals died, 1/3 means one out of 3 recipient animals died, 2/3 means 2 out of 3 recipient animals died, 3/3 means all 3 recipient animals died.

On to `CC(CCOC(=O)c1cccn1CC#N)=C(F)F` [Compound 282, 4,4-difluoro-3-methyl-3-butenyl 1-cyanomethyl-1H-pyrrole-2-carboxylate], for which the mortality (in general, the percentage killed) at 500 ppm in the series on Nilaparvata lugenis is not below 90%. In the case of `CCCCOc1ncc(C(=O)OCCC=C(F)F)c(C)n1` [Reference compound B, 4,4-difluoro-3-butenyl 2-butoxy-4-methylpyrimidine-5-carboxylate, reference compound], in the series on ddy mouse (Slc:ddy), the “Test result Female (mortality, animals died out of 3)” value (from here on “Test result Female”) is 3/3 and the “Test result Male (mortality, animals died out of 3)” value (“Test result Male” for short) is 3/3. Turning to `CC(CCCCOC(=O)c1snnc1-c1ccccc1)=C(F)F` [Compound 11, 6,6-difluoro-5-methyl-5-hexenyl 4-phenyl[1,2,3]-thiadiazole-5-carboxylate], the mortality at 500 ppm in the series on Nilaparvata lugenis is not below 90%.

Take `CC(CCCCOC(=O)c1cccn1C)=C(F)F` [Compound 38, 6,6-difluoro-5-methyl-5-hexenyl 1-methyl-1H-pyrrole-2-carboxylate]: in the series with Nilaparvata lugenis, the mortality at 500 ppm was not below 90%. Regarding `CC(CCCCOC(=O)c1cnsn1)=C(F)F` [Compound 22, 6,6-difluoro-5-methyl-5-hexenyl [1,2,5]thiadiazole-3-carboxylate], the mortality at 500 ppm in the series on Nilaparvata lugenis is not below 90%. Turning to `CC(CCCCOC(=O)c1nc(C)n(-c2ccccc2)n1)=C(F)F` [Compound 47, 6,6-difluoro-5-methyl-5-hexenyl 5-methyl-1-phenyl-1H-[1,2,4]triazole-3-carboxylate], in the series on Nilaparvata lugenis, the mortality at 500 ppm is not below 90%. Turning to `CCn1c(C(=O)OCCCCC(C)=C(F)F)cc2ccccc21` [Compound 25, 6,6-difluoro-5-methyl-5-hexenyl 1-ethyl-1H-indole-2-carboxylate], in the series with Nilaparvata lugenis, the mortality at 500 ppm was not below 90%. On to `CCOc1oc(-c2ccccc2)nc1C(=O)OCCCCC(C)=C(F)F` [Compound 50, 6,6-difluoro-5-methyl-5-hexenyl 5-ethoxy-2-phenyl-oxazole-4-carboxylate], for which the mortality at 500 ppm in the series with Nilaparvata lugenis was not below 90%. The same measure, in the same setting: the same measure for `CC(CCCCOC(=O)c1cnc(-c2ccccc2)s1)=C(F)F` [Compound 132, 6,6-difluoro-5-methyl-5-hexenyl 2-phenylthiazole-5-carboxylate]: not below 90%. Consider `O=C(OCCCCC=C(F)F)c1ccc(Cl)nc1` [Reference compound A, 6,6-difluoro-5-hexenyl 6-chloronicotinate, reference compound], for which, in the series on ddy mouse (Slc:ddy), the “Test result Female” value is listed as 3/3 and the “Test result Male” value is on record as 3/3. As to `CC(CCCCOC(=O)c1nc2ccccc2s1)=C(F)F` [Compound 21, 6,6-difluoro-5-methyl-5-hexenyl benzothiazole-2-carboxylate], the mortality at 500 ppm with Nilaparvata lugenis was not below 90%. In the case of `CC(CCCCOC(=O)c1cn(C)cn1)=C(F)F` [Compound 39, 6,6-difluoro-5-methyl-5-hexenyl 1-methyl-1H-imidazole-4-carboxylate], in the series on Nilaparvata lugenis, the mortality at 500 ppm was not below 90%. Turning to `CC(CCOC(=O)c1cccn1CC1CC1)=C(F)F` [Compound 281, 4,4-difluoro-3-methyl-3-butenyl 1-cyclopropylmethyl-1H-pyrrole-2-carboxylate], in the series with Nilaparvata lugenis, the mortality at 500 ppm was not below 90%. Turning to `CC(CCOC(=O)c1cnc(N(C)c2ccccc2)nc1C)=C(F)F` [Compound 119, 4,4-difluoro-3-methyl-3-butenyl 4-methyl-2-(N-methyl-N-phenylamino)pyrimidine-5-carboxylate], in the series on ddy mouse (Slc:ddy), the “Test result Female” value is recorded as 0/3 and the “Test result Male” value is 0/3. For the compound `CC(CCCCOC(=O)C1CCOC1)=C(F)F` (centres unmarked) [Compound 41, 6,6-difluoro-5-methyl-5-hexenyl tetrahydrofuran-3-carboxylate], in the series with Nilaparvata lugenis, the mortality at 500 ppm is not below 90%.

As for `CCc1nn(C)c(C(=O)OCCCCC(C)=C(F)F)c1Cl` [Compound 26, 6,6-difluoro-5-methyl-5-hexenyl 4-chloro-5-ethyl-2-methyl-2H-pyrazole-3-carboxylate], the mortality at 500 ppm with Nilaparvata lugenis was not below 90%. With `CC(CCOC(=O)c1nc(C)cc(-c2ccccc2)n1)=C(F)F` [Compound 278, 4,4-difluoro-3-methyl-3-butenyl 4-methyl-6-phenyl-pyrimidine-2-carboxylate], the mortality at 500 ppm in the series on Nilaparvata lugenis is not below 90%.

Turning to `CC(CCCCOC(=O)c1csc(-c2ccccc2)n1)=C(F)F` [Compound 129, 6,6-difluoro-5-methyl-5-hexenyl 2-phenylthiazole-4-carboxylate], in the series with Nilaparvata lugenis, the mortality at 500 ppm is not below 90%. As to `CC(CCCCOC(=O)c1noc2ccccc12)=C(F)F` [Compound 44, 6,6-difluoro-5-methyl-5-hexenyl benzo[d]isoxazole-3-carboxylate], the mortality at 500 ppm with Nilaparvata lugenis was not below 90%. In the case of `CC(CCOC(=O)c1cc2ccccc2s1)=C(F)F` [Compound 18, 4,4-difluoro-3-methyl-3-butenyl benzo[b]thiophene-2-carboxylate], in the series on ddy mouse (Slc:ddy), the “Test result Female” value is reported as 0/3 and the “Test result Male” value is recorded as 0/3.

On to `CC(CCCCOC(=O)c1cc2ccccc2s1)=C(F)F` [Compound 3, 6,6-difluoro-5-methyl-5-hexenyl benzo[b]thiophene-2-carboxylate], for which, in the series with ddy mouse (Slc:ddy), the “Test result Female” value is reported as 0/3 and the “Test result Male” value is on record as 0/3. Take `CC(CCCCOC(=O)c1sccc1C)=C(F)F` [Compound 2, 6,6-difluoro-5-methyl-5-hexenyl 3-methylthiophene-2-carboxylate]: in the series on Nilaparvata lugenis, the mortality at 500 ppm was not below 90%. For the compound `CC(CCCCOC(=O)c1ccc2ocnc2c1)=C(F)F` [Compound 43, 6,6-difluoro-5-methyl-5-hexenyl benzoxazole-5-carboxylate], in the series with Nilaparvata lugenis, the mortality at 500 ppm was not below 90%.

With `CC(=O)N1CCC(C(=O)OCCCCC(C)=C(F)F)CC1` [Compound 40, 6,6-difluoro-5-methyl-5-hexenyl 1-acetylpiperidine-4-carboxylate], the mortality at 500 ppm in the series on Nilaparvata lugenis is not below 90%. Regarding `Cc1nc(-c2ccccc2)ncc1C(=O)OCCC=C(F)F` [Reference compound C, 4,4-difluoro-3-butenyl 4-methyl-2-phenylpyrimidine-5-carboxylate, reference compound], in the series with ddy mouse (Slc:ddy), the “Test result Female” value was 3/3 and the “Test result Male” value was 3/3. With `O=C(OCCCCC=C(F)F)c1cc2ccccc2s1` [Reference compound D, 6,6-difluoro-5-hexenyl benzo[b]thiophen-2-carboxylate, reference compound], in the series on ddy mouse (Slc:ddy), the “Test result Female” value is given as 3/3 and the “Test result Male” value is on record as 3/3. With `CC(CCOC(=O)c1c2c(nn1C)CCC2)=C(F)F` [Compound 242, 4,4-difluoro-3-methyl-3-butenyl 2-methyl-2,4,5,6-tetrahydrocyclopentapyrazole-3-carboxylate], the mortality at 500 ppm in the series with Nilaparvata lugenis is not below 90%. For `CC(CCCCCCOC(=O)c1cc2ccccc2s1)=C(F)F` [Compound 10, 8,8-difluoro-7-methyl-7-octenyl benzo[b]thiophene-2-carboxylate], the mortality at 500 ppm in the series with Nilaparvata lugenis is not below 90%.

In the case of `CC(CCCCOC(=O)c1cnc2ccccc2c1)=C(F)F` [Compound 8, 6,6-difluoro-5-methyl-5-hexenyl quinoline-3-carboxylate], the mortality at 500 ppm in the series with Nilaparvata lugenis was not below 90%. As for `CC(CCCCOC(=O)c1cc(Cl)nnc1Cl)=C(F)F` [Compound 48, 6,6-difluoro-5-methyl-5-hexenyl 3,6-dichloropyridazine-4-carboxylate], the mortality at 500 ppm in the series with Nilaparvata lugenis was not below 90%. In the case of `CC(CCCCOC(=O)c1ccc2[nH]ccc2c1)=C(F)F` [Compound 15, 6,6-difluoro-5-methyl-5-hexenyl 1H-indole-5-carboxylate], in the series with Nilaparvata lugenis, the mortality at 500 ppm is not below 90%. Still for that read-out and setting: the same measure for `CC(CCOC(=O)c1ncccc1C(=O)Nc1ccccc1)=C(F)F` [Compound 234, 4,4-difluoro-3-methyl-3-butenyl 3-phenylcarbamoyl-pyridine-2-carboxylate]: not below 90%; for `CC(CCCCOC(=O)c1cnccn1)=C(F)F` [Compound 28, 6,6-difluoro-5-methyl-5-hexenyl pyrazine-2-carboxylate]: not below 90%. As for `CCCCOc1cc(C(=O)OCCC(C)=C(F)F)nc(C)n1` [Compound 276, 4,4-difluoro-3-methyl-3-butenyl 6-butoxy-2-methyl-pyrimidine-4-carboxylate], the mortality at 500 ppm in the series with Nilaparvata lugenis is not below 90%. `CC(CCCCOC(=O)c1ccco1)=C(F)F` [Compound 9, 6,6-difluoro-5-methyl-5-hexenyl furan-2-carboxylate]: in the series on Nilaparvata lugenis, the mortality at 500 ppm was not below 90%. The same measure, in the same setting: the same measure for `CC(CCCCOC(=O)c1nsc2ccccc12)=C(F)F` [Compound 45, 6,6-difluoro-5-methyl-5-hexenyl benzo[d]isothiazole-3-carboxylate]: not below 90%; for `CC(CCCCOC(=O)c1snc(Cl)c1Cl)=C(F)F` [Compound 49, 6,6-difluoro-5-methyl-5-hexenyl 3,4-dichloroisothiazole-5-carboxylate]: not below 90%.
